Laboratory results reported in the NIST ThermoML archive (doi:10.1016/j.jct.2016.07.023).
Numbers after ± are expanded uncertainties.

Conditions: 303.15 K; 101.1 kPa; Crystal; flotation method

- mass density: 1528.6 ± 2.7 kg/m3
Compound: Cc1cc(C(=O)O)ccc1[N+](=O)[O-] [3-methyl-4-nitrobenzoic acid]
